Laboratory results published in PMC5745756, “N,N-disubstituted azines attenuate LPS-mediated neuroinflammation in microglia and neuronal apoptosis via inhibiting MAPK signaling pathways” (BMC Neuroscience, 2017).

What was measured:
Type in all cases: cell-based, murine
N2a cells [1] = assay: Annexin V/PI staining (FACS) of N2a cells given conditioned media from BV-2 cells; settings: CM of compound at each concentration tested (5, 10, 20 µM)
Description: An annexin V/PI apoptosis kit was used in accordance with the manufacturer’s instructions to quantify the percentage of cells undergoing apoptosis. First, BV-2 cells were incubated for 24 h with 5, 10, and 20 µM of compound 3 or LPS (100 ng/mL). Then, N2a cells were treated with the supernatant of the treated BV-2 cells and incubated. After 24 h, the cells were collected, washed twice with cold PBS, and re-suspended in binding buffer at a concentration of […]. Annexin V-FITC (5 µL) and PI (10 µL) were added, and the cells were incubated for 15 min at room temperature in the dark. Following incubation, 200 µL of binding buffer was added, and the cells were immediately analyzed by flow cytometry (FACSAriaIII; BD Biosciences, Franklin Lakes, NJ, USA). The flow cytometric analysis was performed using the Cell Quest software (BD Biosciences). The annexin V+/PI− cells and annexin V−/PI+ cells were used to identify apoptotic cells and necrotic cells, respectively. The procedure was repeated three times for each sample.
Fig. 4 Neuroprotection of compound 3 in LPS-activated microglia in N2a cells. […] An annexin V/PI apoptosis kit was used to quantify the percentage of cells undergoing apoptosis and necrosis (x-axis, annexin V; y-axis, PI) by using FACS analysis. […]

iNOS = assay: Western blot of LPS-induced iNOS expression in BV-2 cells
Description: BV-2 cells were seeded in a 6-well plate at a density of 6 × 10^5 cells/well and exposed to LPS (100 ng/mL) in the presence or absence of compound 3 for required time. After treatment, cells were collected and lysed in cell lysis buffer (50 mM Tris–HCl, pH 8.0, 0.1% SDS, 150 mM NaCl, 1% NP-40, 0.02% sodium azide, 0.5% sodium deoxycholate, 100 µg/mL PMSF, and […]) for 24 h at 4 °C. The protein content was measured using a Bradford assay. Equal amounts of protein (30 µg) were separated using SDS-PAGE and transferred to a nitrocellulose membrane. […]
Fig. 2 Effect of compound 3 on LPS-induced iNOS and COX2 expression in BV-2 cells. […] Similarly, LPS activation was made for 24 h as chronic BV2 activation and the iNOS and COX-2 expression was measured (d). α-Tubulin was used as the loading control. […] After 24 h, the culture medium was subsequently collected to measure the quantity of PGE2 (e), IL-6 (f), and TNF-α (g) using ELISA analysis. […]

N2a cells [2] = assay: TNF-α induced N2a cytotoxicity, direct treatment
Description: N2a cells were used as a representative neuronal cell line for the examination of apoptotic neuron viability using direct treatment of compound 3 with TNF-α activation as well as conditioned media (CM) from LPS-stimulated BV-2 cells treated with compound 3 [28]. This assay was performed following the methods described in our previous study, with slight modifications. To measure neuron viability, BV-2 cells were first seeded and treated with 100 ng/mL LPS in the presence or absence of compound 3. After 24 h, the CM was collected and transferred to N2a cells for a further 24 h. The cell viability of N2a cells was measured using the MTT assay. Well differentiated neuronal cells were used for the experimental purpose as shown in Additional file 1: Fig. S1.
Here, we have investigated whether the compound 3 has any direct protective effects on microglia and neurons against LPS and TNF-α induced direct toxicity. As the aim of this study is to check the effectiveness of compound 3 against neurodegenerative conditions, here we checked the effect of this compound to protect microglial cells against β-amyloid induced cytotoxicity as shown in Fig. 5a. […] LPS treatment was unable to induce cellular toxicity to N2a cells (Fig. 5b). […] Compound 3 mediated neuroprotection in N2a cells is due to the inhibition of proinflammatory cytokines produced by LPS activated microglia. […]

SMILES: COc1cc(/C=C/C=N/N=C/C=C/c2ccc(O)c(OC)c2)ccc1O [Compound 3, 4,4′-(1E,1′E,3E,3′E)-3,3′-(hydrazine-1,2-diylidene)bis(prop-1-ene-1-yl-3-ylidene)bis(2-methoxyphenol)]
- Concentration of apoptotic and necrotic N2a cells (N2a cells [1]): decrease
- Expression of iNOS (iNOS; 5, 10 and 20 µM, 30 min pretreatment, LPS 100 ng/mL 6 h): significantly reduced
- LPS induced iNOS activation, chronic (iNOS; 24 h chronic LPS activation): dramatically rescued
- Cell viability of N2a cells against TNF-α mediated toxicity (N2a cells [2]): increased cell viability
